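These data come from cells grown in 96-well plates and exposed to compound for 48 hours at five concentrations. GI50: concentration for 50% inhibition of growth. TGI: concentration producing complete growth inhibition.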
Key:
Test in all cases: NCI tumour cell line growth inhibition, 48 h
[1] = system: KM12 colon
[2] = system: SK-MEL-5 melanoma
[3] = system: HCT-15 colon
[4] = system: MDA-MB-231 breast
[5] = system: TK-10 renal
[6] = system: COLO 205 colon
[7] = system: NCI/ADR-RES ovarian
[8] = system: UACC-62 melanoma
[9] = system: T-47D breast
[10] = system: UO-31 renal
[11] = system: CCRF-CEM leukemia
[12] = system: HT29 colon
[13] = system: SNB-19 CNS
[14] = system: DU-145 prostate
[15] = system: ACHN renal
[16] = system: UACC-257 melanoma
[17] = system: CAKI-1 renal
[18] = system: SK-MEL-2 melanoma
[19] = system: MCF7 breast
[20] = system: A549 NSCLC
[21] = system: HL-60(TB) leukemia
[22] = system: SK-MEL-28 melanoma
[23] = system: OVCAR-5 ovarian
[24] = system: BT-549 breast
[25] = system: EKVX NSCLC
[26] = system: NCI-H522 lung
[27] = system: HS 578T breast
[28] = system: M14 melanoma
[29] = system: 786-0 renal
[30] = system: OVCAR-8 ovarian
[31] = system: NCI-H460 lung
[32] = system: MDA-MB-435
[33] = system: OVCAR-3 ovarian
[34] = system: SN12C renal
[35] = system: U251 CNS
[36] = system: HCT-116 colon
[37] = system: HOP-92 NSCLC
[38] = system: A498 renal
[39] = system: NCI-H23 lung
[40] = system: SF-539 CNS
[41] = system: MOLT-4 leukemia
[42] = system: PC-3 prostate
[43] = system: HCC-2998 colon
[44] = system: SF-295 CNS
[45] = system: RXF 393 renal
[46] = system: HOP-62 NSCLC
[47] = system: SW-620 colon
[48] = system: IGROV1 ovarian
[49] = system: SF-268 CNS
[50] = system: NCI-H226 lung
[51] = system: K-562 leukemia
[52] = system: RPMI-8226 leukemia
[53] = system: LOX IMVI melanoma
[54] = system: MALME-3M melanoma
[55] = system: SNB-75 CNS
[56] = system: SK-OV-3 ovarian
[57] = system: OVCAR-4 ovarian
[58] = system: SR leukemia

COc1cc(/C=C2\CC3C4CC=C5C[C@@H](N6CCCC6)CC[C@]5(C)C4CC[C@]3(C)[C@H]2OC(C)=O)ccc1OCCCn1ccnc1 (stereo partly specified)
GI50 [1]: 630 nM | TGI [1]: 4020 nM | GI50 [2]: 373 nM | TGI [2]: 790 nM | GI50 [3]: 135 nM | TGI [3]: 483 nM | GI50 [4]: 404 nM | TGI [4]: 1010 nM | GI50 [5]: 479 nM | TGI [5]: 1480 nM | GI50 [6]: 104 nM | TGI [6]: > 50000 nM | GI50 [7]: 5350 nM | TGI [7]: 13500 nM | GI50 [8]: 630 nM | TGI [8]: 2260 nM | GI50 [9]: 2190 nM | TGI [9]: > 50000 nM | GI50 [10]: 2010 nM | TGI [10]: > 50000 nM | GI50 [11]: 1220 nM | TGI [11]: 3910 nM | GI50 [12]: 162 nM | TGI [12]: > 50000 nM | GI50 [13]: 1460 nM | TGI [13]: > 50000 nM | GI50 [14]: 170 nM | TGI [14]: 1490 nM | GI50 [15]: 383 nM | TGI [15]: 1090 nM | GI50 [16]: 2290 nM | TGI [16]: 5270 nM | GI50 [17]: 641 nM | TGI [17]: 2630 nM | GI50 [18]: 7540 nM | TGI [18]: > 50000 nM | GI50 [19]: 1140 nM | TGI [19]: > 21800 nM | GI50 [20]: 2790 nM | TGI [20]: 10300 nM | GI50 [21]: 393 nM | TGI [21]: 1310 nM | GI50 [22]: 157 nM | TGI [22]: > 50000 nM | GI50 [23]: 7150 nM | TGI [23]: 15300 nM | GI50 [24]: 2190 nM | TGI [24]: 9720 nM | GI50 [25]: 1280 nM | TGI [25]: 9120 nM | GI50 [26]: 3860 nM | TGI [26]: > 27500 nM | GI50 [27]: 5760 nM | TGI [27]: 16400 nM | GI50 [28]: 304 nM | TGI [28]: 752 nM | GI50 [29]: 369 nM | TGI [29]: 1380 nM | GI50 [30]: 774 nM | TGI [30]: 2790 nM | GI50 [31]: 531 nM | TGI [31]: > 19200 nM | GI50 [32]: 912 nM | TGI [32]: 1680 nM | GI50 [33]: 275 nM | TGI [33]: 777 nM | GI50 [34]: 1240 nM | TGI [34]: 9770 nM | GI50 [35]: 84.5 nM | TGI [35]: 164 nM | GI50 [36]: 93.8 nM | TGI [36]: 1520 nM | GI50 [37]: 6090 nM | TGI [37]: 17700 nM | GI50 [38]: 2660 nM | TGI [38]: 5180 nM | GI50 [39]: 4000 nM | TGI [39]: 7960 nM | GI50 [40]: 196 nM | TGI [40]: 459 nM | GI50 [41]: 206 nM | TGI [41]: > 15400 nM | GI50 [42]: 958 nM | TGI [42]: 8410 nM | GI50 [43]: 178 nM | TGI [43]: 568 nM | GI50 [44]: 1210 nM | TGI [44]: 3460 nM | GI50 [45]: 704 nM | TGI [45]: 2080 nM | GI50 [46]: 435 nM | TGI [46]: 1080 nM | GI50 [47]: 232 nM | TGI [47]: 1210 nM | GI50 [48]: 8120 nM | TGI [48]: > 50000 nM | GI50 [49]: 3870 nM | TGI [49]: > 29200 nM | GI50 [50]: 10300 nM | TGI [50]: 21900 nM | GI50 [51]: 119 nM | TGI [51]: 360 nM | GI50 [52]: 343 nM | TGI [52]: > 14000 nM

CCCCCCCCC#CCCCCCCC(F)C(=O)O (stereo unspecified)
TGI [1]: > 100000 nM | TGI [2]: > 100000 nM | TGI [3]: > 100000 nM | TGI [5]: > 100000 nM | TGI [6]: > 100000 nM | TGI [7]: > 100000 nM | TGI [9]: > 100000 nM | TGI [10]: > 100000 nM | TGI [11]: > 100000 nM | TGI [12]: > 100000 nM | TGI [53]: > 100000 nM | TGI [13]: > 100000 nM | TGI [54]: > 100000 nM | TGI [14]: > 100000 nM | TGI [15]: > 100000 nM | TGI [55]: > 100000 nM | TGI [16]: > 100000 nM | TGI [18]: > 100000 nM | TGI [20]: > 100000 nM | TGI [56]: > 100000 nM | TGI [21]: 83600 nM | TGI [22]: > 100000 nM | TGI [23]: > 100000 nM | TGI [25]: > 100000 nM | TGI [26]: > 100000 nM | TGI [27]: > 100000 nM | TGI [57]: > 100000 nM | TGI [28]: > 100000 nM | TGI [29]: > 100000 nM | TGI [30]: > 100000 nM | TGI [31]: > 100000 nM | TGI [58]: > 100000 nM | TGI [32]: > 100000 nM | TGI [33]: > 100000 nM | TGI [35]: > 100000 nM | TGI [36]: > 100000 nM | TGI [37]: > 100000 nM | TGI [38]: > 100000 nM | TGI [39]: > 100000 nM | TGI [40]: > 100000 nM | TGI [41]: > 100000 nM | TGI [42]: > 100000 nM | TGI [43]: > 100000 nM | TGI [44]: > 100000 nM | TGI [45]: > 100000 nM | TGI [46]: > 100000 nM | TGI [47]: > 100000 nM | TGI [48]: > 100000 nM | TGI [49]: > 100000 nM | TGI [50]: > 100000 nM | TGI [51]: > 100000 nM | TGI [52]: > 100000 nM
